By IC50 is commonly meant the concentration needed to halve the response being measured. A lower IC50 goes with inhibition by little substance.

Data on 26 compounds can be found in US20250353842A1, “BICYCLIC AMINE CDK12 INHIBITORS” (Incyte Corporation, priority 2022, published 2025).

CDK12 complexed with Cyclin K, sequence (Q9NYV4 whole entry): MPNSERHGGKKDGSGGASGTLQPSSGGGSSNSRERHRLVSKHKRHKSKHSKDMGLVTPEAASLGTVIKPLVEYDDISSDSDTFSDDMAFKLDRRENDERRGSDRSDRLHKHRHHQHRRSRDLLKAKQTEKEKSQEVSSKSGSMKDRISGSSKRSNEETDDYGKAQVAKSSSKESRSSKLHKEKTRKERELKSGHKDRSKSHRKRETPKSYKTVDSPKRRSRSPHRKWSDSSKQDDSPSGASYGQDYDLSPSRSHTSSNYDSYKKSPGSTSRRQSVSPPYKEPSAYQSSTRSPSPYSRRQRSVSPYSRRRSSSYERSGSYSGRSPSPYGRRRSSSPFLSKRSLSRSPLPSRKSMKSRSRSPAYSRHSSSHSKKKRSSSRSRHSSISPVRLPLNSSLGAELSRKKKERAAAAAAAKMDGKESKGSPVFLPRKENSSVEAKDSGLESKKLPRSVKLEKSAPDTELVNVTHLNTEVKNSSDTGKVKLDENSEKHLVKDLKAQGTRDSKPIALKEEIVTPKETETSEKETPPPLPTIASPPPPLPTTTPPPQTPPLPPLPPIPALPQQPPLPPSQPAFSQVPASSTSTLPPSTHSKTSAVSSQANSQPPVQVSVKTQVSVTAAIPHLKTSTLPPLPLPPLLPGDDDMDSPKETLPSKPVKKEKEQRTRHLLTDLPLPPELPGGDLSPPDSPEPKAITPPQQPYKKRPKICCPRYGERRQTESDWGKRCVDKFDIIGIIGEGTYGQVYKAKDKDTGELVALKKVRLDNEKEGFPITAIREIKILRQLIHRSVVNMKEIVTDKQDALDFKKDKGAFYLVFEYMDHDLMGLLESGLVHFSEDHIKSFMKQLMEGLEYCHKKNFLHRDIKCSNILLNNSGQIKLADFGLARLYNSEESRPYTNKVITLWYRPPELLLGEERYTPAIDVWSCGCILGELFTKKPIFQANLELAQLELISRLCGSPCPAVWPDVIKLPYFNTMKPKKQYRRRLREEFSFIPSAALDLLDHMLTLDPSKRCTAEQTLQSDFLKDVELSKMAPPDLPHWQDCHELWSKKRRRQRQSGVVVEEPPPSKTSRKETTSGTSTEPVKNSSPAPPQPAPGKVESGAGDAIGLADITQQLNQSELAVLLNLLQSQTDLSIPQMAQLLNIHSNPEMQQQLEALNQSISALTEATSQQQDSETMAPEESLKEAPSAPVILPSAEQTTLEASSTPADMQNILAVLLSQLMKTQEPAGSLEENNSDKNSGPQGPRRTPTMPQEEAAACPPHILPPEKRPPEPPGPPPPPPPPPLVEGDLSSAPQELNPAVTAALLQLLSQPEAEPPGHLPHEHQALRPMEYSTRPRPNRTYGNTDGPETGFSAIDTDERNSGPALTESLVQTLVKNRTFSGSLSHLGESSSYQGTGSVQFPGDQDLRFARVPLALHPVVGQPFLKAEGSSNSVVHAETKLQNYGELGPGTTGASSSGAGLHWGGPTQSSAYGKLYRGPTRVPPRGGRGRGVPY
CDK12 complexed with Cyclin K, sequence (O75909 whole entry partner): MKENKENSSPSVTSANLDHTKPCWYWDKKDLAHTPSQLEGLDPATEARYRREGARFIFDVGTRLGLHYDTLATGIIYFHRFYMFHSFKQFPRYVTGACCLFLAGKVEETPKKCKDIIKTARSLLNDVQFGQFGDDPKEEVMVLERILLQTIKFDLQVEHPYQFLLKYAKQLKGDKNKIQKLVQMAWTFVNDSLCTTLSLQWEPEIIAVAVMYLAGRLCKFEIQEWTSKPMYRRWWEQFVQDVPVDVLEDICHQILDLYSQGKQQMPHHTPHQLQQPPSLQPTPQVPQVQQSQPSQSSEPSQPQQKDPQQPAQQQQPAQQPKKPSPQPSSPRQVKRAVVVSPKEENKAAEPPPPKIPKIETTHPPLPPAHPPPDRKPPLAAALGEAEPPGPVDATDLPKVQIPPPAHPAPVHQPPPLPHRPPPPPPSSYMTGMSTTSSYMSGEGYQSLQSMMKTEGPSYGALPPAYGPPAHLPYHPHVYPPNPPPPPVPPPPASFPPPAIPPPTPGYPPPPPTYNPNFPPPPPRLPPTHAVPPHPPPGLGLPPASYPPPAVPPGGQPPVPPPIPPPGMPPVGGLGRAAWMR

This test deals with CDK12 complexed with Cyclin K (Homo sapiens (Human), UniProt Q9NYV4). Put plainly: CDK enzymatic assay (HTRF, LANCE Ultra kinase assay). Type of test: biochemical. The conditions noted are these: 60 minutes pre-incubation, 1 mM ATP. The procedure, abridged:
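GST-tagged human CDK12 co-expressed with full-length Cyclin K in baculovirus, pre-incubated 60 min with compound, then 1 mM ATP and 50 nM ULight-4E-BP1 peptide (final) in pH 7.5 HEPES buffer for 60-90 min at room temperature. EDTA/Eu-anti-phospho-4E-BP1 stop; 665/620 nm HTRF ratio normalized to DMSO and no-enzyme controls, IC50 from 3- or 4-parameter fit.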
In general terms: Time-resolved FRET reads energy transfer from a long-lived donor to a nearby acceptor.
The compound `Cn1cnc(-c2nc(N[C@@H]3CCC[C@H](n4cnc5cc(C#N)cnc54)C3)ncc2C#N)c1` [Example 61, 3-((1S,3R)-3-((5-Cyano-4-(1-methyl-1H-imidazol-4-yl)pyrimidin-2-yl)amino)cyclohexyl)-3H-imidazo[4,5-b]pyridine-6-carbonitrile] gave a half-maximal inhibitory concentration (IC50) of under 50 nM.
As for `N#Cc1cnc2c(c1)ncn2[C@H]1CCC[C@@H](Nc2ncc(C#N)c(-c3cnn(CC(F)(F)F)c3)n2)C1` [Example 62, 3-((1S,3R)-3-((5-Cyano-4-(1-(2,2,2-trifluoroethyl)-1H-pyrazol-4-yl)pyrimidin-2-yl)amino)cyclohexyl)-3H-imidazo[4,5-b]pyridine-6-carbonitrile], the figure is under 50 nM.
As to `N#Cc1cnc2c(c1)ncn2[C@H]1CCC[C@@H](Nc2ncc(C#N)c(-c3cnn(C4CCOCC4)c3)n2)C1` [Example 63, 3-((1S,3R)-3-((5-Cyano-4-(1-(tetrahydro-2H-pyran-4-yl)-1H-pyrazol-4-yl)pyrimidin-2-yl)amino)cyclohexyl)-3H-imidazo[4,5-b]pyridine-6-carbonitrile], the IC50 is under 50 nM.
As for `Cn1cc(-c2nc(N[C@@H]3CCC[C@H](n4cnc5cc(C#N)cnc54)C3)ncc2C#N)cn1` [Example 64, 3-((1S,3R)-3-((5-Cyano-4-(1-methyl-1H-pyrazol-4-yl)pyrimidin-2-yl)amino)cyclohexyl)-3H-imidazo[4,5-b]pyridine-6-carbonitrile], the figure is under 50 nM.
`N#Cc1cnc2c(c1)ncn2[C@H]1CCC[C@@H](Nc2ncc(C#N)c(-c3cnn(-c4ccccc4)c3)n2)C1` [Example 65, 3-((1S,3R)-3-((5-Cyano-4-(1-phenyl-1H-pyrazol-4-yl)pyrimidin-2-yl)amino)cyclohexyl)-3H-imidazo[4,5-b]pyridine-6-carbonitrile] returned an IC50 of under 50 nM.
To `N#Cc1cnc2c(c1)ncn2[C@H]1CCC[C@@H](Nc2ncc(C#N)c(-c3cnn(C4COC4)c3)n2)C1` [Example 66, 3-((1S,3R)-3-((5-Cyano-4-(1-(oxetan-3-yl)-1H-pyrazol-4-yl)pyrimidin-2-yl)amino)cyclohexyl)-3H-imidazo[4,5-b]pyridine-6-carbonitrile] belongs under 50 nM; to `CC(O)Cn1cc(-c2nc(N[C@@H]3CCC[C@H](n4cnc5cc(C#N)cnc54)C3)ncc2C#N)cn1` (stereo partly drawn) [Example 67, 3-((1S,3R)-3-((5-Cyano-4-(1-(2-hydroxypropyl)-1H-pyrazol-4-yl)pyrimidin-2-yl)amino)cyclohexyl)-3H-imidazo[4,5-b]pyridine-6-carbonitrile], under 50 nM; to `N#Cc1cnc2c(c1)ncn2[C@H]1CCC[C@@H](Nc2ncc(C#N)c(-c3cnn(CCO)c3)n2)C1` [Example 68, 3-((1S,3R)-3-((5-Cyano-4-(1-(2-hydroxyethyl)-1H-pyrazol-4-yl)pyrimidin-2-yl)amino)cyclohexyl)-3H-imidazo[4,5-b]pyridine-6-carbonitrile], under 50 nM.
As for `N#Cc1cnc2c(c1)ncn2[C@H]1CCC[C@@H](Nc2ncc(C#N)c(-c3cnn(CC4CC4)c3)n2)C1` [Example 69, 3-((1S,3R)-3-((5-Cyano-4-(1-(cyclopropylmethyl)-1H-pyrazol-4-yl)pyrimidin-2-yl)amino)cyclohexyl)-3H-imidazo[4,5-b]pyridine-6-carbonitrile], the figure is under 50 nM; as for `N#Cc1cnc2c(c1)ncn2[C@H]1CCC[C@@H](Nc2ncc(C#N)c(-c3cnn(CCF)c3)n2)C1` [Example 70, 3-((1S,3R)-3-((5-Cyano-4-(1-(2-fluoroethyl)-1H-pyrazol-4-yl)pyrimidin-2-yl)amino)cyclohexyl)-3H-imidazo[4,5-b]pyridine-6-carbonitrile], under 50 nM.
Consider `N#Cc1cnc2c(c1)ncn2[C@H]1CCC[C@@H](Nc2ncc(C#N)c(-c3cnn(C4CC4)c3)n2)C1` [Example 71, 3-((1S,3R)-3-((5-Cyano-4-(1-cyclopropyl-1H-pyrazol-4-yl)pyrimidin-2-yl)amino)cyclohexyl)-3H-imidazo[4,5-b]pyridine-6-carbonitrile], for which the IC50 was under 50 nM.
In turn, `CC(C)n1cc(-c2nc(N[C@@H]3CCC[C@H](n4cnc5cc(C#N)cnc54)C3)ncc2C#N)cn1` [Example 72, 3-((1S,3R)-3-((5-Cyano-4-(1-isopropyl-1H-pyrazol-4-yl)pyrimidin-2-yl)amino)cyclohexyl)-3H-imidazo[4,5-b]pyridine-6-carbonitrile] came in with a half-inhibitory concentration (IC50) of under 50 nM.
The compound `CCn1cc(-c2nc(N[C@@H]3CCC[C@H](n4cnc5cc(C#N)cnc54)C3)ncc2C#N)cn1` [Example 73, 3-((1S,3R)-3-((5-Cyano-4-(1-ethyl-1H-pyrazol-4-yl)pyrimidin-2-yl)amino)cyclohexyl)-3H-imidazo[4,5-b]pyridine-6-carbonitrile] displayed a 50% inhibitory concentration (IC50) of under 50 nM.
To `CC(=O)N1CCN(c2cnc3c(c2)ncn3[C@H]2CCC[C@@H](Nc3ncc(C#N)c(-c4cnn(CC(F)F)c4)n3)C2)CC1` [Example 74, 2-(((1R,3S)-3-(6-(4-Acetylpiperazin-1-yl)-3H-imidazo[4,5-b]pyridin-3-yl)cyclohexyl)amino)-4-(1-(2,2-difluoroethyl)-1H-pyrazol-4-yl)pyrimidine-5-carbonitrile] belongs under 50 nM; to `CN1CCN(c2cnc3c(c2)ncn3[C@H]2CCC[C@@H](Nc3ncc(C#N)c(-c4cnn(CC(F)F)c4)n3)C2)CC1` [Example 75, 4-(1-(2,2-Difluoroethyl)-1H-pyrazol-4-yl)-2-(((1R,3S)-3-(6-(4-methylpiperazin-1-yl)-3H-imidazo[4,5-b]pyridin-3-yl)cyclohexyl)amino)pyrimidine-5-carbonitrile], under 50 nM.
The compound `N#Cc1cnc(N[C@@H]2CCC[C@H](n3cnc4cc(N5CCOCC5)cnc43)C2)nc1-c1cnn(CC(F)F)c1` [Example 76, 4-(1-(2,2-Difluoroethyl)-1H-pyrazol-4-yl)-2-(((1R,3S)-3-(6-morpholino-3H-imidazo[4,5-b]pyridin-3-yl)cyclohexyl)amino)pyrimidine-5-carbonitrile] returned a concentration for half-maximal inhibition (IC50) of under 50 nM.
For the compound `Cc1ccncc1-c1cnc2c(c1)ncn2[C@H]1CCC[C@@H](Nc2ncc(C#N)c(-c3cnn(CC(F)F)c3)n2)C1` [Example 77, 4-(1-(2,2-Difluoroethyl)-1H-pyrazol-4-yl)-2-(((1R,3S)-3-(6-(4-methylpyridin-3-yl)-3H-imidazo [4,5-b]pyridin-3-yl)cyclohexyl)amino)pyrimidine-5-carbonitrile], the half-inhibitory concentration (IC50) was in the range of 50 to 500 nM.
For `C=C(C)c1cnc2c(c1)ncn2[C@H]1CCC[C@@H](Nc2ncc(C(F)(F)F)c(-c3cnn(CC(F)F)c3)n2)C1` [Example 78, 4-(1-(2,2-Difluoroethyl)-1H-pyrazol-4-yl)-N-((1R,3S)-3-(6-(prop-1-en-2-yl)-3H-imidazo[4,5-b]pyridin-3-yl)cyclohexyl)-5-(trifluoromethyl)pyrimidin-2-amine], the IC50 is under 50 nM.
As for `FC(F)Cn1cc(-c2nc(N[C@@H]3CCC[C@H](n4cnc5cc(C6CC6)cnc54)C3)ncc2C(F)(F)F)cn1` [Example 79, N-((1R,3S)-3-(6-Cyclopropyl-3H-imidazo[4,5-b]pyridin-3-yl)cyclohexyl)-4-(1-(2,2-difluoroethyl)-1H-pyrazol-4-yl)-5-(trifluoromethyl)pyrimidin-2-amine], the concentration for half-maximal inhibition (IC50) is under 50 nM.
`FC(F)Cn1cc(-c2nc(N[C@@H]3CCC[C@H](n4cnc5cc(-c6cn[nH]c6)cnc54)C3)ncc2C(F)(F)F)cn1` [Example 80, N-((1R,3S)-3-(6-(1H-Pyrazol-4-yl)-3H-imidazo[4,5-b]pyridin-3-yl)cyclohexyl)-4-(1-(2,2-difluoroethyl)-1H-pyrazol-4-yl)-5-(trifluoromethyl)pyrimidin-2-amine] had a concentration for half-maximal inhibition (IC50) of under 50 nM.
As for `Cn1cc(-c2cnc3c(c2)ncn3[C@H]2CCC[C@@H](Nc3ncc(C(F)(F)F)c(-c4cnn(CC(F)F)c4)n3)C2)cn1` [Example 81, 4-(1-(2,2-Difluoroethyl)-1H-pyrazol-4-yl)-N-((1R,3S)-3-(6-(1-methyl-1H-pyrazol-4-yl)-3H-imidazo[4,5-b]pyridin-3-yl)cyclohexyl)-5-(trifluoromethyl)pyrimidin-2-amine], the figure is under 50 nM; as for `FC(F)Cn1cc(-c2nc(N[C@@H]3CCC[C@H](n4cnc5cc(-c6cccnc6)cnc54)C3)ncc2C(F)(F)F)cn1` [Example 82, 4-(1-(2,2-Difluoroethyl)-1H-pyrazol-4-yl)-N-((1R,3S)-3-(6-(pyridin-3-yl)-3H-imidazo[4,5-b]pyridin-3-yl)cyclohexyl)-5-(trifluoromethyl)pyrimidin-2-amine], under 50 nM; as for `FC(F)Cn1cc(-c2nc(N[C@@H]3CCC[C@H](n4cnc5cc(N6CCCC6)cnc54)C3)ncc2C(F)(F)F)cn1` [Example 83, 4-(1-(2,2-Difluoroethyl)-1H-pyrazol-4-yl)-N-((1R,3S)-3-(6-(pyrrolidin-1-yl)-3H-imidazo[4,5-b]pyridin-3-yl)cyclohexyl)-5-(trifluoromethyl)pyrimidin-2-amine], under 50 nM.
To `CN(C)c1cnc2c(c1)ncn2[C@H]1CCC[C@@H](Nc2ncc(C(F)(F)F)c(-c3cnn(CC(F)F)c3)n2)C1` [Example 84, 3-((1S,3R)-3-((4-(1-(2,2-Difluoroethyl)-1H-pyrazol-4-yl)-5-(trifluoromethyl)pyrimidin-2-yl)amino)cyclohexyl)-N,N-dimethyl-3H-imidazo[4,5-b]pyridin-6-amine] belongs under 50 nM; to `Cc1nccc2c1ncn2[C@H]1CCC[C@@H](Nc2ncc(C#N)c(-c3cnn(CC(F)F)c3)n2)C1` [Example 85, 4-(1-(2,2-Difluoroethyl)-1H-pyrazol-4-yl)-2-(((1R,3S)-3-(4-methyl-1H-imidazo[4,5-c]pyridin-1-yl)cyclohexyl)amino)pyrimidine-5-carbonitrile], under 50 nM; to `N#Cc1ccc2c(c1)ncn2[C@H]1CCC[C@@H](Nc2ncc(C#N)c(-c3cnn(CC(F)F)c3)n2)C1` [Example 86, 1-((1S,3R)-3-((5-Cyano-4-(1-(2,2-difluoroethyl)-1H-pyrazol-4-yl)pyrimidin-2-yl)amino)cyclohexyl)-1H-benzo[d]imidazole-5-carbonitrile], under 50 nM.
